Source: ChEMBL document CHEMBL1153245, “A profile of the in vitro anti-tumor activity of imidazolium-based ionic liquids” (2010)

What was measured:
Assay type in all cases: functional
CCRF-CEM = assay: Anticancer activity against human CCRF-CEM cells after 48 hrs by sulforhodamine B assay; conditions: Homo sapiens, CCRF-CEM, 48 h
MOLT-4 = assay: Anticancer activity against human MOLT4 cells after 48 hrs by sulforhodamine B assay; conditions: Homo sapiens, MOLT-4, 48 h
SR = assay: Anticancer activity against human SR cells after 48 hrs by sulforhodamine B assay; conditions: Homo sapiens, SR, 48 h; for CC50: read-out: LC50 (the source's name)
A549 = assay: Anticancer activity against human A549 cells after 48 hrs by sulforhodamine B assay; conditions: Homo sapiens, A549, 48 h
NCI-H226 = assay: Anticancer activity against human NCI-H226 cells after 48 hrs by sulforhodamine B assay; conditions: Homo sapiens, NCI-H226, 48 h
NCI-H23 = assay: Anticancer activity against human NCI-H23 cells after 48 hrs by sulforhodamine B assay; conditions: Homo sapiens, NCI-H23, 48 h; for CC50: read-out: LC50 (the source's name)
NCI-H460 = assay: Anticancer activity against human NCI-H460 cells after 48 hrs by sulforhodamine B assay; conditions: Homo sapiens, NCI-H460, 48 h
COLO 205 = assay: Anticancer activity against human COLO205 cells after 48 hrs by sulforhodamine B assay; conditions: Homo sapiens, COLO 205, 48 h; for CC50: read-out: LC50 (the source's name)
HCC 2998 = assay: Anticancer activity against human HCC2998 cells after 48 hrs by sulforhodamine B assay; conditions: Homo sapiens, HCC 2998, 48 h; for CC50: read-out: LC50 (the source's name)
HCT-116 = assay: Anticancer activity against human HCT116 cells after 48 hrs by sulforhodamine B assay; conditions: Homo sapiens, HCT-116, 48 h; for CC50: read-out: LC50 (the source's name)
HT-29 = assay: Anticancer activity against human HT-29 cells after 48 hrs by sulforhodamine B assay; conditions: Homo sapiens, HT-29, 48 h; for CC50: read-out: LC50 (the source's name)
KM12 = assay: Anticancer activity against human KM12 cells after 48 hrs by sulforhodamine B assay; conditions: Homo sapiens, KM12, 48 h; for CC50: read-out: LC50 (the source's name)
SW-620 = assay: Anticancer activity against human SW620 cells after 48 hrs by sulforhodamine B assay; conditions: Homo sapiens, SW-620, 48 h
SF-268 = assay: Anticancer activity against human SF268 cells after 48 hrs by sulforhodamine B assay; conditions: Homo sapiens, SF-268, 48 h; for CC50: read-out: LC50 (the source's name)
SF-295 = assay: Anticancer activity against human SF295 cells after 48 hrs by sulforhodamine B assay; conditions: Homo sapiens, SF-295, 48 h; for CC50: read-out: LC50 (the source's name)
SF-539 = assay: Anticancer activity against human SF539 cells after 48 hrs by sulforhodamine B assay; conditions: Homo sapiens, SF-539, 48 h
SNB-75 = assay: Anticancer activity against human SNB75 cells after 48 hrs by sulforhodamine B assay; conditions: Homo sapiens, SNB-75, 48 h; for CC50: read-out: LC50 (the source's name)
U-251 = assay: Anticancer activity against human U251 cells after 48 hrs by sulforhodamine B assay; conditions: Homo sapiens, U-251, 48 h; for CC50: read-out: LC50 (the source's name)
Malme-3M = assay: Anticancer activity against human MALME-3M cells after 48 hrs by sulforhodamine B assay; conditions: Homo sapiens, Malme-3M, 48 h
SK-MEL-2 = assay: Anticancer activity against human SK-MEL-2 cells after 48 hrs by sulforhodamine B assay; conditions: SK-MEL-2, 48 h
UACC-62 = assay: Anticancer activity against human UACC62 cells after 48 hrs by sulforhodamine B assay; conditions: Homo sapiens, UACC-62, 48 h
IGROV-1 = assay: Anticancer activity against human IGROV1 cells after 48 hrs by sulforhodamine B assay; conditions: IGROV-1, 48 h; for CC50: read-out: LC50 (the source's name)
OVCAR-3 = assay: Anticancer activity against human OVCAR-3 cells after 48 hrs by sulforhodamine B assay; conditions: Homo sapiens, OVCAR-3, 48 h
OVCAR-5 = assay: Anticancer activity against human OVCAR5 cells after 48 hrs by sulforhodamine B assay; conditions: Homo sapiens, OVCAR-5, 48 h; for CC50: read-out: LC50 (the source's name)
OVCAR-8 = assay: Anticancer activity against human OVCAR8 cells after 48 hrs by sulforhodamine B assay; conditions: Homo sapiens, OVCAR-8, 48 h
CAKI-1 = assay: Anticancer activity against human Caki1 cells after 48 hrs by sulforhodamine B assay; conditions: Homo sapiens, CAKI-1, 48 h
SN12C = assay: Anticancer activity against human SN12C cells after 48 hrs by sulforhodamine B assay; conditions: Homo sapiens, SN12C, 48 h
TK-10 = assay: Anticancer activity against human TK10 cells after 48 hrs by sulforhodamine B assay; conditions: Homo sapiens, TK-10, 48 h
PC-3 = assay: Anticancer activity against human PC3 cells after 48 hrs by sulforhodamine B assay; conditions: Homo sapiens, PC-3, 48 h; for CC50: read-out: LC50 (the source's name)
MCF7 = assay: Anticancer activity against human MCF7 cells after 48 hrs by sulforhodamine B assay; conditions: Homo sapiens, MCF7, 48 h
MDA-MB-231 = assay: Anticancer activity against human MDA-MB-231 cells after 48 hrs by sulforhodamine B assay; conditions: Homo sapiens, MDA-MB-231, 48 h; for CC50: read-out: LC50 (the source's name)
T47D = assay: Anticancer activity against human T47D cells after 48 hrs by sulforhodamine B assay; conditions: Homo sapiens, T47D, 48 h; for CC50: read-out: LC50 (the source's name)
MDA-MB-468 = assay: Anticancer activity against human MDA-MB-468 cells after 48 hrs by sulforhodamine B assay; conditions: Homo sapiens, MDA-MB-468, 48 h
EKVX = assay: Anticancer activity against human EKVX cells assessed cell growth at 10 uM after 48 hrs by sulforhodamine B assay relative to control

## CCCCCCCCCCCCCCCCCC[n+]1ccn(C)c1.O=S(=O)([N-]S(=O)(=O)C(F)(F)F)C(F)(F)F
CCRF-CEM
  GI50: 458 nM
  LC50: > 100000 nM
MOLT-4
  GI50: 650 nM
  LC50: > 100000 nM
SR
  GI50: 1240 nM
  CC50: > 100000 nM
A549
  GI50: 1180 nM
  LC50 (concentration killing 50% of cells): > 100000 nM
NCI-H226
  GI50: 1260 nM
  LC50: 8000 nM
NCI-H23
  GI50: 407 nM
  CC50: 7700 nM
NCI-H460
  GI50: 663 nM
  LC50: 5240 nM
COLO 205
  GI50: 350 nM
  CC50: 4020 nM
HCC 2998
  GI50: 494 nM
  CC50: 9070 nM
HCT-116
  GI50: 651 nM
  CC50: > 100000 nM
HT-29
  GI50: 378 nM
  CC50: 9130 nM
KM12
  GI50: 454 nM
  CC50: 5460 nM
SW-620
  GI50: 520 nM
  LC50: 6480 nM
SF-268
  GI50: 1140 nM
  CC50: 6290 nM
SF-295
  GI50: 484 nM
  CC50: 6610 nM
SF-539
  GI50: 937 nM
  LC50 (lethal concentration, 50% cell kill): 5280 nM
SNB-75
  GI50: 530 nM
  CC50: 5710 nM
U-251
  GI50: 397 nM
  CC50: 3970 nM
Malme-3M
  GI50: 454 nM
  LC50 (concentration killing 50% of cells): 5080 nM
SK-MEL-2
  GI50: 2090 nM
  LC50: > 100000 nM
UACC-62
  GI50: 1040 nM
  LC50: 5100 nM
IGROV-1
  GI50: 516 nM
  CC50: > 100000 nM
OVCAR-3
  GI50: 442 nM
  LC50 (50% lethal concentration): 4710 nM
OVCAR-5
  GI50: 909 nM
  CC50: 9140 nM
OVCAR-8
  GI50: 913 nM
  LC50: > 100000 nM
CAKI-1
  GI50: 263 nM
  LC50: 6720 nM
SN12C
  GI50: 1250 nM
  LC50: 5720 nM
TK-10
  GI50: 407 nM
  LC50: 4430 nM
PC-3
  GI50: 311 nM
  CC50: 5260 nM
MCF7
  GI50: 1000 nM
  LC50 (50% cell kill): 5520 nM
MDA-MB-231
  GI50: 1040 nM
  CC50: 5930 nM
T47D
  GI50: 600 nM
  CC50: > 100000 nM
MDA-MB-468
  GI50: 196 nM
  LC50: > 100000 nM

## COCC[n+]1ccn(C)c1.O=S(=O)([N-]S(=O)(=O)C(F)(F)F)C(F)(F)F
EKVX
  Activity: 108.75%

## Cn1cc[n+](CCO)c1.O=S(=O)([N-]S(=O)(=O)C(F)(F)F)C(F)(F)F
EKVX
  Activity: 100.51%

## CCCCCCCCCCCCCCCCCC[n+]1ccn(C)c1.FC(F)(F)C(F)(F)[P-](F)(F)(F)(C(F)(F)C(F)(F)F)C(F)(F)C(F)(F)F
CCRF-CEM
  GI50: 324 nM
  LC50: > 100000 nM
MOLT-4
  GI50: 336 nM
  LC50: > 100000 nM
SR
  GI50: 3370 nM
  CC50: > 100000 nM
A549
  GI50: 458 nM
  LC50 (concentration killing 50% of cells): > 100000 nM
NCI-H226
  GI50: 435 nM
  LC50: 8230 nM
NCI-H23
  GI50: 224 nM
  CC50: 12700 nM
NCI-H460
  GI50: 323 nM
  LC50: 4850 nM
COLO 205
  GI50: 196 nM
  CC50: 778 nM
HCC 2998
  GI50: 271 nM
  CC50: 25500 nM
HCT-116
  GI50: 294 nM
  CC50: > 100000 nM
HT-29
  GI50: 315 nM
  CC50: > 100000 nM
KM12
  GI50: 214 nM
  CC50: 929 nM
SW-620
  GI50: 328 nM
  LC50: 3740 nM
SF-268
  GI50: 481 nM
  CC50: 5790 nM
SF-295
  GI50: 275 nM
  CC50: 5770 nM
SF-539
  GI50: 288 nM
  LC50 (lethal concentration, 50% cell kill): 4190 nM
SNB-75
  GI50: 419 nM
  CC50: > 100000 nM
U-251
  GI50: 322 nM
  CC50: 3700 nM
Malme-3M
  GI50: 271 nM
  LC50 (concentration killing 50% of cells): 4250 nM
SK-MEL-2
  GI50: 372 nM
  LC50: > 100000 nM
UACC-62
  GI50: 500 nM
  LC50: 4660 nM
IGROV-1
  GI50: 219 nM
  CC50: 1440 nM
OVCAR-3
  GI50: 316 nM
  LC50 (50% lethal concentration): 3790 nM
OVCAR-5
  GI50: 489 nM
  CC50: 32700 nM
OVCAR-8
  GI50: 491 nM
  LC50: > 100000 nM
CAKI-1
  GI50: 293 nM
  LC50: 7460 nM
SN12C
  GI50: 353 nM
  LC50: 4180 nM
TK-10
  GI50: 310 nM
  LC50: 4120 nM
PC-3
  GI50: 276 nM
  CC50: 8030 nM
MCF7
  GI50: 309 nM
  LC50 (50% cell kill): 4690 nM
MDA-MB-231
  GI50: 378 nM
  CC50: 4820 nM
T47D
  GI50: 282 nM
  CC50: 63700 nM
MDA-MB-468
  GI50: 173 nM
  LC50: > 100000 nM

## Cn1cc[n+](Cc2ccccc2)c1.F[P-](F)(F)(F)(F)F
EKVX
  Activity: 102.53%
